Data on one compound can be found in US20230110128A1, “USE OF ANTIBODY DRUG CONJUGATES COMPRISING TUBULIN DISRUPTING AGENTS TO TREAT SOLID TUMOR” (Seagen Inc., priority 2018, published 2023).

Non-standard residues stand in square brackets, D forms with d. Residues, ends and D or L forms follow the SMILES beside them. *: point of attachment. Dolaproine = CO[C@@H]([C@@H]1CCCN1)[C@@H](C)C(=O)O; Dil = CC[C@H](C)[C@H](NC)[C@@H](CC(=O)O)OC; X1 = C[C@@H](N*)[C@@H](O)c1ccccc1; NMeV = CN[C@H](C(=O)O)C(C)C

Format in all cases: cell-based
In experiment [1] the test system is T-24 cells co-cultured with macrophages. Put plainly: Macrophage antigen presentation after co-culture with treated T-24 cells. To be noted: T-24 treated 24 hours; macrophages harvested 4 days after co-culture. How it is done:
(§1) T-24 (bladder) cells were treated with MMAE or an MMAE-containing ADC (ASG-22ME) for 48 hours and analyzed for ATP secretion. […] T-24 cells were also treated with MMAE, an MMAE-containing ADC (ASG22ME, Enfortumab vedotin), vincristine, and Paclitaxel for 24 hours. Cells were washed and harvested, and subsequently co-cultured with the enriched macrophages as above. Macrophages were harvested 4 days after co-culture and assayed for immune activation by flow cytometry. Level of antigen-presentation (as measured by frequency of MHCII-expressing macrophages) was quantified and normalized to macrophages that were co-cultured with untreated tumor cells. […] Supernatant from the co-culture of macrophages and dying T-24 tumor cells was harvested after 24 hours and assayed for levels of cytokine and chemokine production by ELISA and normalized to macrophages that were co-cultured with untreated tumor cells.

For a further experiment, the system named is MCF7 cells. Nature of the experiment: HMGB1 release from MCF7 cells. The procedure:
Induction of ICD is also characterized by the secretion of ATP and HMGB1. Extracellular ATP serves as a strong chemotactic signal, promoting immune cell migration to the tumor site. Upon arrival, extracellular HMGB1 signals through various pro-inflammatory receptors (TLR2, TLR4, RAGE) to activate antigen-presenting cells, thereby promoting immune activity within the tumor.
MCF7 cells were treated with MMAE or an MMAE-containing ADC (SGN-LIV1A) for 16 hours and harvested in […] for western bot analysis. […] Induction of ICD is also characterized by the secretion of ATP and HMGB1. Extracellular ATP serves as a strong chemotactic signal, promoting immune cell migration to the tumor site. Upon arrival, extracellular HMGB1 signals through various pro-inflammatory receptors (TLR2, TLR4, RAGE) to activate antigen-presenting cells, thereby promoting immune activity within the tumor.

Experiment [2] relates to A2058, SK-MEL-5, and SK-MEL-28 (skin) cells co-cultured with macrophages. Nature of the experiment: Macrophage antigen presentation after co-culture with treated skin tumor cells. The following applies: tumor cells treated 24 hours; macrophages harvested 4 days after co-culture; normalized to untreated. The procedure: Macrophages were enriched from PBMCs from 2 healthy donors by adhering PBMCs to cell culture-grade plastic. Non-adherent cells were removed 24 hours later, leaving a population of cells enriched for macrophages.
A2058, SK-MEL-5, and SK-MEL-28 (skin) cells were treated with MMAE, vincristine, and Paclitaxel for 24 hours. Cells were washed and harvested, and subsequently co-cultured with the enriched macrophages prepared above. Macrophages were harvested 4 days after co-culture and assayed for immune activation by flow cytometry. The level of antigen-presentation (as measured by frequency of MHCII-expressing cells) was quantified and normalized to macrophages that were co-cultured with untreated tumor cells.

The subject of another experiment is T-24 (bladder) cells. Put plainly: ATP secretion from T-24 cells. To be noted: 48 hours. How it is done: as §1

As for `CC[C@H](C)[C@@H]([C@@H](CC(=O)N1CCC[C@H]1[C@H](OC)[C@@H](C)C(=O)N[C@H](C)[C@@H](O)c1ccccc1)OC)N(C)C(=O)[C@@H](NC(=O)[C@@H](NC)C(C)C)C(C)C` [MMAE, monomethyl auristatin E] (H-[NMeV]V[Dil][Dolaproine]-X1), the “Macrophage antigen presentation (frequency of MHCII-expressing macrophages)” value in experiment [1] is given as “increase in macrophage antigen presentation that was more robust than treatment with Paclitaxel”. The “Secretion of HMGB1” value with MCF7 cells is “increased secretion”. The “Antigen-presentation (frequency of MHCII-expressing cells)” value in experiment [2] is “increase in antigen-presentation in 2/3 tumor cell lines that was more robust than Paclitaxel”. The ATP secretion result in the experiment on T-24 (bladder) cells is listed as “potent ATP secretion”.
